The values that follow come from patent publication US20120157471A1, “BENZIMIDAZOLE DERIVATIVES” (PFIZER INC., priority 2009, published 2012).

Experiment [1] deals with T1, human Smo (amino acids 181-787) (Homo sapiens, UniProt Q99835).
T1 construct: expressed in transfected cells; membrane preparation
The experiment in a line: Smo radioligand competition binding assay (displacement of 3H-PF-03451358 from HEK293 membranes). The settings on record: for inhibition at 0.05 µM: read-out: SMO % inh. @ 0.05 μM; for IC50: radioligand competition binding. In a few lines:
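Displacement of 3 nM tritiated PF-03451358 measured by filtration and scintillation counting after 2 h at room temperature, using 40 μg/well HEK293 membranes bearing cell-surface Smo 181-787, pH 7.5 buffer. Specific binding defined against 30 μM unlabelled ligand; IC50 via variable-slope sigmoidal fit.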
(In general: Displacement assays read how much labelled ligand stays bound in the presence of the test substance.)

The next experiment concerns Gli-Luc/MEF cells (Smo). Briefly: Gli-Luc/MEF assay (Shh-stimulated luciferase reporter under the Gli response element). Format: cell-based, mouse. Summed up:
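IC50 derived from luminescence (Bright-Glo) after 48 h at 37° C, 5% CO2, with compound at […] (3-fold dilutions) added together with mouse Shh at 2 μg/mL final. Cells: MEFs from Gli-Luc transgenic mice.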
Background: In a reporter assay the amount or activity of a reporter protein is the signal.

Setting [2] is: 0.05 μM test compound, displacement of 3H-PF-03451358.

T1 sequence (Q99835 181-787): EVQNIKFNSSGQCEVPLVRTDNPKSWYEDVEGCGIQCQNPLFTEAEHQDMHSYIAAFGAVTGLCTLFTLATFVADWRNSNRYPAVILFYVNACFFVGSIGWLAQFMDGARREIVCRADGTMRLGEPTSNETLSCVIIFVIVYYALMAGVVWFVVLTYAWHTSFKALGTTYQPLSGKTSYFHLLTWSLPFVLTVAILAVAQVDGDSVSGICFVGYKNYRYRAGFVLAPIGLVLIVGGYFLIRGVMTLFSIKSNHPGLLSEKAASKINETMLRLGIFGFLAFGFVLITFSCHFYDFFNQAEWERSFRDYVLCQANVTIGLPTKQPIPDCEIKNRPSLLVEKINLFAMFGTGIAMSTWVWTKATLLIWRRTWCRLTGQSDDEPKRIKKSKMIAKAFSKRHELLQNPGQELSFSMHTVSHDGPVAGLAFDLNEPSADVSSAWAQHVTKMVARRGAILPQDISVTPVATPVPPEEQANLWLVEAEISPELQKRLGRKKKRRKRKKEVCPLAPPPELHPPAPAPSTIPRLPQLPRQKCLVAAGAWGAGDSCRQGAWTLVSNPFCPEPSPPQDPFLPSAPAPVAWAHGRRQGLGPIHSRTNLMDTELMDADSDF

What is called IC50 is the midpoint of a concentration-inhibition curve. Higher therefore signals lower potency. Turning to `Cn1c(-c2cc(N3CCC(NS(C)(=O)=O)CC3)ncc2Cl)nc2cccnc21` [Example A-36, N-{1-[5-chloro-4-(3-methyl-3H-imidazo[4,5-b]pyridin-2-yl)pyridin-2-yl]piperidin-4-yl}methanesulfonamide], the inhibition at 0.05 µM in experiment [1] (setting [2]) was 93%. In addition, the IC50 in experiment [1] was found to be 23 nM; in the experiment with Gli-Luc/MEF cells (Smo) (Mus musculus, MEF, 48 h) it was 12 nM.

Regarding `CC(=O)N1CCCN(c2cc(-c3nc4cccnc4n3C)c(Cl)cn2)CC1` [Example A-39, 2-[2-(4-acetyl-1,4-diazepan-1-yl)-5-chloropyridin-4-yl]-3-methyl-3H-imidazo[4,5-b]pyridine], the inhibition at 0.05 µM in experiment [1] (setting [2]) was found to be 92%. Moreover, the IC50 in experiment [1] came to 45 nM; in the experiment on Gli-Luc/MEF cells (Smo) (Mus musculus, MEF, 48 h), 30 nM.

With `Cn1c(-c2cc(N3CC(NS(C)(=O)=O)C3)ncc2Cl)nc2ccccc21` [Example A-41, N-{1-[5-chloro-4-(1-methyl-1H-benzimidazol-2-yl)pyridin-2-yl]azetidin-3-yl}methanesulfonamide], the inhibition at 0.05 µM in experiment [1] (setting [2]) amounted to 98%. Also, the IC50 in experiment [1] came to 7 nM; with Gli-Luc/MEF cells (Smo) (Mus musculus, MEF, 48 h) it was 4 nM.

Turning to `CC(=O)NC1CCN(c2cc(-c3nc4ccccc4n3C)c(Cl)cn2)C1` (stereo not drawn) [Example A-42, N-{1-[5-chloro-4-(1-methyl-1H-benzimidazol-2-yl)pyridin-2-yl]pyrrolidin-3-yl}acetamide], the inhibition at 0.05 µM in experiment [1] (setting [2]) stood at 72%. Further, the IC50 came to 131 nM in experiment [1] and 92 nM in the experiment with Gli-Luc/MEF cells (Smo) (Mus musculus, MEF, 48 h).

Turning to `CC(=O)NC1CN(c2cc(-c3nc4ccccc4n3C)c(Cl)cn2)C1` [Example A-43, N-{1-[5-chloro-4-(1-methyl-1H-benzimidazol-2-yl)pyridin-2-yl]azetidin-3-yl}acetamide], the inhibition at 0.05 µM in experiment [1] (setting [2]) came to 86%. Further, the IC50 in experiment [1] is 190 nM; in the experiment with Gli-Luc/MEF cells (Smo) (Mus musculus, MEF, 48 h), 92 nM.

On to `COC(=O)NC1CN(c2cc(-c3nc4ccccc4n3C)c(Cl)cn2)C1` [Example A-44], for which, in experiment [1] (setting [2]), the inhibition at 0.05 µM came out at 89%. Besides, the IC50 was 59 nM in experiment [1] and 22 nM in the experiment with Gli-Luc/MEF cells (Smo) (Mus musculus, MEF, 48 h).

Turning to `Cc1noc(CC2CN(c3cc(-c4nc5ccccc5n4C)c(Cl)cn3)CCO2)n1` (stereo not drawn) [Example A-45, 2-(5-chloro-2-{2-[(3-methyl-1,2,4-oxadiazol-5-yl)methyl]morpholin-4-yl}pyridin-4-yl)-1-methyl-1H-benzimidazole], the inhibition at 0.05 µM in experiment [1] (setting [2]) stood at 102%. The IC50 turned out to be 13 nM in experiment [1] and 9 nM with Gli-Luc/MEF cells (Smo) (Mus musculus, MEF, 48 h).

`Cn1c(-c2cc(N3CCOCC(Cc4cncnc4)C3)ncc2Cl)nc2ccccc21` (stereo not drawn) [Example A-46, 2-{5-chloro-2-[6-(pyrimidin-5-ylmethyl)-1,4-oxazepan-4-yl]pyridin-4-yl}-1-methyl-1H-benzimidazole]: in experiment [1] (setting [2]), the inhibition at 0.05 µM turned out to be 101%. Further, the IC50 in experiment [1] was found to be 14 nM; with Gli-Luc/MEF cells (Smo) (Mus musculus, MEF, 48 h) it was 9 nM.

Regarding `Cn1c(-c2cc(N3CCOCC(CO)C3)ncc2Cl)nc2ccccc21` (stereo not drawn) [Example A-47, {4-[5-chloro-4-(1-methyl-1H-benzimidazol-2-yl)pyridin-2-yl]-1,4-oxazepan-6-yl}methanol], the inhibition at 0.05 µM in experiment [1] (setting [2]) was determined as 101%. Moreover, the IC50 in experiment [1] was 9 nM; in the experiment with Gli-Luc/MEF cells (Smo) (Mus musculus, MEF, 48 h), 7 nM.

On to `COCc1nc(C2CCN(c3cc(-c4nc5ccccc5n4C)c(Cl)cn3)CC2)no1` [Example A-49, 2-(5-chloro-2-{4-[5-(methoxymethyl)-1,2,4-oxadiazol-3-yl]piperidin-1-yl}pyridin-4-yl)-1-methyl-1H-benzimidazole], for which the inhibition at 0.05 µM in experiment [1] (setting [2]) came out at 100%. In addition, the IC50 in experiment [1] is 11 nM; in the experiment with Gli-Luc/MEF cells (Smo) (Mus musculus, MEF, 48 h) it was 7 nM.

As to `CC(=O)N1CCCN(c2cc(-c3nc4ccccc4n3C)c(Cl)cn2)CC1` [Example A-50, 2-[2-(4-acetyl-1,4-diazepan-1-yl)-5-chloropyridin-4-yl]-1-methyl-1H-benzimidazole], the inhibition at 0.05 µM in experiment [1] (setting [2]) is 100%. The IC50 in experiment [1] worked out at 7 nM; with Gli-Luc/MEF cells (Smo) (Mus musculus, MEF, 48 h) it was 4 nM.

In the case of `Cn1c(-c2cc(N3CCC(CS(C)(=O)=O)CC3)ncc2Cl)nc2ccccc21` [Example A-51, 2-(5-chloro-2-{4-[(methylsulfonyl)methyl]piperidin-1-yl}pyridin-4-yl)-1-methyl-1H-benzimidazole], the inhibition at 0.05 µM in experiment [1] (setting [2]) was 99%. Besides, the IC50 was 6 nM in experiment [1] and 7 nM in the experiment on Gli-Luc/MEF cells (Smo) (Mus musculus, MEF, 48 h).

As to `Cc1nc(CC2CN(c3cc(-c4nc5ccccc5n4C)c(Cl)cn3)CCO2)no1` (stereo not drawn) [Example A-52, 2-(5-chloro-2-{2-[(5-methyl-1,2,4-oxadiazol-3-yl)methyl]morpholin-4-yl}pyridin-4-yl)-1-methyl-1H-benzimidazole], the inhibition at 0.05 µM in experiment [1] (setting [2]) is 99%. In addition, the IC50 worked out at 13 nM in experiment [1] and 13 nM in the experiment on Gli-Luc/MEF cells (Smo) (Mus musculus, MEF, 48 h).

For the compound `Cn1c(-c2cc(N3CCOCC(O)C3)ncc2Cl)nc2ccccc21` (stereo not drawn) [Example A-53, 4-[5-chloro-4-(1-methyl-1H-benzimidazol-2-yl)pyridin-2-yl]-1,4-oxazepan-6-yl], the inhibition at 0.05 µM in experiment [1] (setting [2]) amounted to 98%. The IC50 in experiment [1] worked out at 12 nM; in the experiment on Gli-Luc/MEF cells (Smo) (Mus musculus, MEF, 48 h) it was 9 nM.

Consider `Cn1c(-c2cc(N3CCN(C(=O)c4ncn[nH]4)CC3)ncc2Cl)nc2ccccc21` [Example A-56, 2-{5-chloro-2-[4-(1H-1,2,4-triazol-3-ylcarbonyl)piperazin-1-yl]pyridin-4-yl}-1-methyl-1H-benzimidazole], for which, in experiment [1] (setting [2]), the inhibition at 0.05 µM amounted to 98%. Further, the IC50 in experiment [1] worked out at 21 nM; in the experiment with Gli-Luc/MEF cells (Smo) (Mus musculus, MEF, 48 h), 9 nM.

Regarding `Cn1c(-c2cc(N3CCC4(CCCC(=O)N4)CC3)ncc2Cl)nc2ccccc21` [Example A-57, 9-[5-chloro-4-(1-methyl-1H-benzimidazol-2-yl)pyridin-2-yl]-1,9-diazaspiro[5.5]undecan-2-one], the inhibition at 0.05 µM in experiment [1] (setting [2]) was found to be 97%. Besides, the IC50 is 20 nM in experiment [1] and 7 nM with Gli-Luc/MEF cells (Smo) (Mus musculus, MEF, 48 h).

With `CC(=O)N1CCC(N(C)c2cc(-c3nc4ccccc4n3C)c(Cl)cn2)CC1` [Example A-58, N-(1-acetylpiperidin-4-yl)-5-chloro-N-methyl-4-(1-methyl-1H-benzimidazol-2-yl)pyridin-2-amine], in experiment [1] (setting [2]), the inhibition at 0.05 µM was 97%. Also, the IC50 in experiment [1] worked out at 15 nM; in the experiment on Gli-Luc/MEF cells (Smo) (Mus musculus, MEF, 48 h) it was 31 nM.

Take `Cn1c(-c2cc(N3CCC(OCC(=O)NC4CC4)CC3)ncc2Cl)nc2ccccc21` [Example A-59, 2-({1-[5-chloro-4-(1-methyl-1H-benzimidazol-2-yl)pyridin-2-yl]piperidin-4-yl}oxy)-N-cyclopropylacetamide]: the inhibition at 0.05 µM in experiment [1] (setting [2]) amounted to 96%. For the same compound, the IC50 in experiment [1] came out at 12 nM; with Gli-Luc/MEF cells (Smo) (Mus musculus, MEF, 48 h) it was 3 nM.

In the case of `Cn1c(-c2cc(N3CCN(CCS(C)(=O)=O)CC3)ncc2Cl)nc2ccccc21` [Example A-61, 2-(5-chloro-2-{4-[2-(methylsulfonyl)ethyl]piperazin-1-yl}pyridin-4-yl)-1-methyl-1H-benzimidazole], in experiment [1] (0.05 μM test compound, displacement of 3H-PF-03451358, 0.05 µM), the “SMO % inh. @ 0.05 μM” value came to 96%. The IC50 was 18 nM in experiment [1] and 73 nM with Gli-Luc/MEF cells (Smo) (48 hours).

For the compound `CC(=O)NCC1CCCN(c2cc(-c3nc4ccccc4n3C)c(Cl)cn2)C1` (stereo not drawn) [Example A-62, N-({1-[5-chloro-4-(1-methyl-1H-benzimidazol-2-yl)pyridin-2-yl]piperidin-3-yl}methyl)acetamide], the inhibition at 0.05 µM in experiment [1] (setting [2]) is 95%. In addition, the IC50 in experiment [1] amounted to 24 nM; in the experiment on Gli-Luc/MEF cells (Smo) (Mus musculus, MEF, 48 h) it was 21 nM.

On to `Cn1c(-c2cc(N3CC[C@@H](O)[C@H](O)C3)ncc2Cl)nc2ccccc21` [Example A-63, (3R,4R)-1-[5-chloro-4-(1-methyl-1H-benzimidazol-2-yl)pyridin-2-yl]piperidine-3,4-diol], for which, in experiment [1] (setting [2]), the inhibition at 0.05 µM worked out at 95%. The IC50 in experiment [1] stood at 25 nM; in the experiment on Gli-Luc/MEF cells (Smo) (Mus musculus, MEF, 48 h) it was 18 nM.

Regarding `Cc1noc(C2CN(c3cc(-c4nc5ccccc5n4C)c(Cl)cn3)CCO2)n1` (stereo not drawn) [Example A-64, 2-{5-chloro-2-[2-(3-methyl-1,2,4-oxadiazol-5-yl)morpholin-4-yl]pyridin-4-yl}-1-methyl-1H-benzimidazole], the inhibition at 0.05 µM in experiment [1] (setting [2]) worked out at 95%. The IC50 in experiment [1] was 28 nM; in the experiment on Gli-Luc/MEF cells (Smo) (Mus musculus, MEF, 48 h) it was 7 nM.

As for `Cn1c(-c2cc(N3CCC(CS(N)(=O)=O)CC3)ncc2Cl)nc2ccccc21` [Example A-65, 1-{1-[5-chloro-4-(1-methyl-1H-benzimidazol-2-yl)pyridin-2-yl]piperidin-4-yl}methanesulfonamide], the inhibition at 0.05 µM in experiment [1] (setting [2]) turned out to be 95%. In addition, the IC50 in experiment [1] was determined as 6 nM; with Gli-Luc/MEF cells (Smo) (Mus musculus, MEF, 48 h) it was 2 nM.

As to `Cn1c(-c2cc(N3CCC(S(N)(=O)=O)CC3)ncc2Cl)nc2ccccc21` [Example A-66, 1-[5-chloro-4-(1-methyl-1H-benzimidazol-2-yl)pyridin-2-yl]piperidine-4-sulfonamide], in experiment [1] (setting [2]), the inhibition at 0.05 µM is 94%. Further, the IC50 in experiment [1] is 14 nM; in the experiment with Gli-Luc/MEF cells (Smo) (Mus musculus, MEF, 48 h), 5 nM.

For the compound `Cc1nnc2n1CCN(c1cc(-c3nc4ccccc4n3C)c(Cl)cn1)CC2` [Example A-67, 7-[5-chloro-4-(1-methyl-1H-benzimidazol-2-yl)pyridin-2-yl]-3-methyl-6,7,8,9-tetrahydro-5H-[1,2,4]triazolo[4,3-d][1,4]diazepine], the inhibition at 0.05 µM in experiment [1] (setting [2]) was 94%. Also, the IC50 came to 33 nM in experiment [1] and 26 nM with Gli-Luc/MEF cells (Smo) (Mus musculus, MEF, 48 h).

For the compound `Cn1c(-c2cc(N3CCc4nnc(C5CC5)n4CC3)ncc2Cl)nc2ccccc21` [Example A-68, 7-[5-chloro-4-(1-methyl-1H-benzimidazol-2-yl)pyridin-2-yl]-3-cyclopropyl-6,7,8,9-tetrahydro-5H-[1,2,4]triazolo[4,3-d][1,4]diazepine], the inhibition at 0.05 µM in experiment [1] (setting [2]) was found to be 94%. Further, the IC50 in experiment [1] turned out to be 21 nM; with Gli-Luc/MEF cells (Smo) (Mus musculus, MEF, 48 h), 20 nM.
